Patent US20230114241A1, “METHODS OF TREATING EPILEPSY USING THE SAME” (Trevena, Inc., priority 2019, published 2023)

What was measured:
[1] = target: T1, human sphingosine-1-phosphate receptor 1 (S1P1) (Homo sapiens, UniProt P21453); assay: Inhibition of cAMP production (HTRF cAMP HiRange), S1P1 CHO-K1 cells; format: cell-based; details: for Emax: CHO-K1, efficacy normalized to maximum efficacy of fingolimod, read-out: hS1P1 CAMP SPAN; for EC50: inhibition of cAMP production, S1P1, read-out: hS1P1 CAMP pEC50 (converted)
How it was run: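 CHO-K1 cells co-expressing human S1P1 (C-terminal ProLink tag) and EA-β-arrestin2, plated overnight; after 30 min compound incubation at 37 °C, intracellular cAMP measured by HTRF TR-FRET following 1 h at room temperature. Values normalized to fingolimod.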
Target sequence in this assay (P21453 whole entry): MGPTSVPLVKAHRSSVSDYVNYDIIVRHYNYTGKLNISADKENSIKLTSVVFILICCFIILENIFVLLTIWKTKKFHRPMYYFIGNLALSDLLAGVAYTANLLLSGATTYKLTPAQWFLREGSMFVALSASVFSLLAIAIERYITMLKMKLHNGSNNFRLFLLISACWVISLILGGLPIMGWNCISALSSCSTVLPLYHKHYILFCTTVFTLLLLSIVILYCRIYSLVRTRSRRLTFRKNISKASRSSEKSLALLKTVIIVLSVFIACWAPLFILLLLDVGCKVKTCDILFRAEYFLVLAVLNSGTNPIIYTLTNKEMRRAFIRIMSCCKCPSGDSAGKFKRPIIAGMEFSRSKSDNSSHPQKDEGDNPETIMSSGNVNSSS

[2] = target: T1, human sphingosine-1-phosphate receptor 1 (S1P1); assay: β-Arrestin2 recruitment assay (PathHunter), S1P1 CHO-K1 cells; format: cell-based; details: for Emax: CHO-K1, efficacy normalized to maximum efficacy of fingolimod, read-out: hS1P1 B-arrestin2 SPAN; for EC50: β-arrestin2 recruitment, S1P1, read-out: hS1P1 B-arrestin2 pEC50 (converted)
How it was run: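 CHO-K1 cells co-expressing EA-β-arrestin2 and ProLink-tagged human S1P1 plated overnight, then stimulated 60 min at 37 °C. Enzyme-fragment complementation (β-galactosidase) detected after 1 h at room temperature by luminescence; values normalized to fingolimod.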
Target sequence in this assay (P21453 whole entry): as above
Target sequence in this assay (P32121 whole entry partner): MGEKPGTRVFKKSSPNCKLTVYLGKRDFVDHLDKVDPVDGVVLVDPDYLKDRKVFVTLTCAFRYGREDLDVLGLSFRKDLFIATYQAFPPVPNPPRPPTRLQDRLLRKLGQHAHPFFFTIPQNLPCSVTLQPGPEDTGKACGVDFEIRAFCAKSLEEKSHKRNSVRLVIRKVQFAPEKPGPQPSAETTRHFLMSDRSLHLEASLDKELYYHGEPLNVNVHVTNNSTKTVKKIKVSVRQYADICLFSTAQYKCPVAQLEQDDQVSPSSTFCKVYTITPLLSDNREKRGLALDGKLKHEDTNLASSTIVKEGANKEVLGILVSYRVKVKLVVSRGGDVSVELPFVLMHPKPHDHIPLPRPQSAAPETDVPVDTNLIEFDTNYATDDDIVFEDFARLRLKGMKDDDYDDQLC

Emax [1] [%]	EC50 [1] [µM]	Emax [2] [%]	EC50 [2] [µM]	SMILES
> 75	< 0.316	> 75	> 10	CCC1(CC)CC(=O)c2cc(-c3nc(-c4cc[nH]c4)no3)ccc2O1 [Compound 485, 6-(3-(1H-pyrrol-3-yl)-1,2,4-oxadiazol-5-yl)-2,2-diethylchroman-4-one]
< 75	< 0.316	> 75	> 10	N#Cc1cc(-c2nnc(-c3ccc4[nH]c(=O)oc4c3)o2)ccc1NCC1CC1 [Compound 486, 2-[(cyclopropyl-methyl)amino]-5-[5-(2-oxo-2,3-dihydro-1,3-benzoxazol-6-yl)-1,3,4-oxadiazol-2-yl]benzonitrile]
> 75	> 0.316	> 75	< 10	N#Cc1cc(-c2nnc(-c3ccc4[nH]c(=O)oc4c3)o2)ccc1NCCF [Compound 487, 2-[(2-fluoroethyl)amino]-5-[5-(2-oxo-2,3-dihydro-1,3-benzoxazol-6-yl)-1,3,4-oxadiazol-2-yl]benzonitrile]
< 75	< 0.316	> 75	< 10	N#Cc1cc(-c2nnc(-c3ccc4[nH]c(=O)oc4c3)o2)ccc1NCC(F)F [Compound 488, 2-[(2,2-difluoro-ethyl)amino]-5-[5-(2-oxo-2,3-dihydro-1,3-benzoxazol-6-yl)-1,3,4-oxadiazol-2-yl]benzonitrile]
> 75	< 0.316	> 75	< 10	Cc1occc1-c1noc(-c2ccc3c(c2)nnn3C(C)C)n1 [Compound 491, 5-[3-(2-methylfuran-3-yl)-1,2,4-oxadiazol-5-yl]-1-(propan-2-yl)-1H-1,2,3-benzotriazole]
< 75	> 0.316	< 75	< 10	COCC1(COC)CC(=O)c2cc(-c3nc(-c4ccncc4)no3)ccc2O1 [Compound 494, 2,2-bis(methoxy-methyl)-6-[3-(pyridin-4-yl)-1,2,4-oxadiazol-5-yl]-3,4-dihydro-2H-1-benzopyran-4-one]
> 75	< 0.316	> 75	< 10	CCC1(CC)CC(=O)c2cc(-c3nc(-c4ccoc4)no3)ccc2O1 [Compound 495, 2,2-diethyl-6-(3-(furan-3-yl)-1,2,4-oxadiazol-5-yl)chroman-4-one]
> 75	< 0.316	< 75	> 10	CC(C)n1nnc2cc(-c3nc(-c4ccc5nonc5c4)no3)ccc21 [Compound 498, 5-{5-[1-(propan-2-yl)-1H-1,2,3-benzotriazol-5-yl]-1,2,4-oxadiazol-3-yl}-2,1,3-benzoxadiazole]
< 75	> 0.316	< 75	> 10	CCC1(CC)CC(=O)c2cc(-c3nc(-c4ccc5nonc5c4)no3)ccc2O1 [Compound 500, 6-[3-(2,1,3-benzoxadiazol-5-yl)-1,2,4-oxadiazol-5-yl]-2,2-diethyl-3,4-dihydro-2H-1-benzopyran-4-one]
> 75	< 0.316	> 75	< 10	CCC1(CC)CC(=O)c2cc(-c3nc(-c4cncc(N)c4)no3)ccc2O1 [Compound 502, 6-(3-(5-aminopyridin-3-yl)-1,2,4-oxadiazol-5-yl)-2,2-diethylchroman-4-one]
< 75	> 0.316	> 75	> 10	Cc1ccccc1-c1nc(-c2ccc3c(c2)nnn3CC(C)(C)CO)no1 [Compound 505, 2,2-dimethyl-3-(5-(5-(o-tolyl)-1,2,4-oxadiazol-3-yl)-1H-benzo[d][1,2,3]triazol-1-yl)propan-1-ol]
< 75	> 0.316	> 75	> 10	CCC1(CC)CC(=O)c2cc(-c3ncc(-c4cccnc4)cn3)ccc2O1 [Compound 509, 2,2-diethyl-6-(5-(pyridin-3-yl)pyrimidin-2-yl)chroman-4-one]
< 75	< 0.316	> 75	< 10	CCC1(CC)CC(=O)c2cc(-c3ncc(-c4ccncc4)cn3)ccc2O1 [Compound 510, 2,2-diethyl-6-(5-(pyridin-4-yl)pyrimidin-2-yl)chroman-4-one]
> 75	< 0.316	< 75	< 10	CCC1(CC)CC(=O)c2cc(-c3nc(-c4ccnc(NC(C)=O)c4)no3)ccc2O1 [Compound 512, N-(4-(5-(2,2-diethyl-4-oxochroman-6-yl)-1,2,4-oxadiazol-3-yl)pyridin-2-yl)acetamide]
> 75	< 0.316	> 75	< 10	CCC1(CC)CC(=O)c2cc(-c3nc(-c4ccnc(N)c4)no3)ccc2O1 [Compound 513, 6-(3-(2-aminopyridin-4-yl)-1,2,4-oxadiazol-5-yl)-2,2-diethyl-chroman-4-one]
> 75	< 0.316	< 75	< 10	CC(C)Nc1ccc(-c2nc(-c3ccc4c(c3)C(=O)NCC4)no2)cc1C#N [Compound 514, 2-(isopropylamino)-5-(3-(l-oxo-1,2,3,4-tetra-hydroisoquinolin-7-yl)-1,2,4-oxadiazol-5-yl)benzonitrile]
> 75	> 0.316	< 75	> 10	Cc1cn(C)nc1-c1noc(-c2ccc3c(c2)nnn3CC(C)(C)O)n1 [Compound 518, 1-{5-[3-(1,4-dimethyl-1H-pyrazol-3-yl)-1,2,4-oxadiazol-5-yl]-1H-1,2,3-benzotriazol-1-yl}-2-methylpropan-2-ol]
< 75	> 0.316	< 75	> 10	CCC1(CC)CC(=O)c2cc(-c3nc(-c4ccc5ncccc5c4)no3)ccc2O1 [Compound 521, 2,2-diethyl-6-(3-(quinolin-6-yl)-1,2,4-oxadiazol-5-yl)chroman-4-one]
> 75	> 0.316	> 75	> 10	CCC1(CC)CC(=O)c2cc(-c3nc(-c4ccc5cnccc5c4)no3)ccc2O1 [Compound 522, 2,2-diethyl-6-(3-(isoquinolin-6-yl)-1,2,4-oxadiazol-5-yl)chroman-4-one]
> 75	> 0.316	> 75	> 10	COc1ccc(-c2nc(-c3ccc4c(c3)nnn4CC(C)(C)CO)no2)c(C)c1 [Compound 523, 3-(5-(5-(4-methoxy-2-methylphenyl)-1,2,4-oxadiazol-3-yl)-1H-benzo[d][1,2,3]triazol-1-yl)-2,2-dimethyl-propan-1-ol]
> 75	< 0.316	< 75	< 10	Cc1ccsc1-c1nc(-c2ccc3c(c2)nnn3CC(C)(C)CO)no1 [Compound 524, 2,2-dimethyl-3-(5-(5-(3-methylthiophen-2-yl)-1,2,4-oxadiazol-3-yl)-1H-benzo[d] [1,2,3]triazol-1-yl)propan-1-ol]
> 75	> 0.316	> 75	> 10	COc1ccccc1-c1nc(-c2ccc3c(c2)nnn3CC(C)(C)CO)no1 [Compound 525, 3-(5-(5-(2-methoxy-phenyl)-1,2,4-oxadiazol-3-yl)-1H-benzo[d][1,2,3]triazol-1-yl)-2,2-dimethyl-propan-1-ol]
> 75	> 0.316	> 75	> 10	CC(C)(CO)Cn1nnc2cc(-c3noc(-c4ccccc4Cl)n3)ccc21 [Compound 526, 3-(5-(5-(2-chloro-phenyl)-1,2,4-oxadiazol-3-yl)-1H-benzo[d][1,2,3]triazol-1-yl)-2,2-dimethylpropan-1-ol]
> 75	> 0.316	> 75	> 10	CCc1ccccc1-c1nc(-c2ccc3c(c2)nnn3CC(C)(C)CO)no1 [Compound 527, 3-(5-(5-(2-ethylphenyl)-1,2,4-oxadiazol-3-yl)-1H-benzo[d][1,2,3]triazol-1-yl)-2,2-dimethylpropan-1-ol]
> 75	> 0.316	< 75	> 10	CC(C)(CO)Cn1nnc2cc(-c3noc(-c4ccncc4C(F)(F)F)n3)ccc21 [Compound 528, 2,2-dimethyl-3-(5-(5-(3-(trifluoro-methyl)pyridin-4-yl)-1,2,4-oxadiazol-3-yl)-1H-benzo[d][1,2,3]triazol-1-yl)propan-1-ol]
> 75	> 0.316	< 75	< 10	CC(C)(CO)Cn1nnc2cc(-c3noc(-c4cnccc4C(F)(F)F)n3)ccc21 [Compound 529, 2,2-dimethyl-3-(5-(5-(4-(trifluoro-methyl)pyridin-3-yl)-1,2,4-oxadiazol-3-yl)-1H-benzo[d][1,2,3]triazol-1-yl)propan-1-ol]
> 75	> 0.316	> 75	> 10	CCC1(CC)CC(=O)c2cc(-c3ncc(-c4ccccn4)cn3)ccc2O1 [Compound 530, 2,2-diethyl-6-(5-(pyridin-2-yl)pyrimidin-2-yl)chroman-4-one]
< 75	> 0.316	< 75	> 10	COc1cc(NC(C)=O)ccc1-c1noc(-c2ccc3nonc3c2)n1 [Compound 533, N-{4-[5-(2,1,3-benzoxadiazol-5-yl)-1,2,4-oxadiazol-3-yl]-3-methoxy-phenyl}acetamide]
